Reference: ChEMBL document CHEMBL5465560, “Selectivity Literature for EUbOPEN Chemogenomic Library” (2024)
One block for each compound: values may come before it.

Key:
[1] = target: Protein kinase C theta type (Homo sapiens, UniProt Q04759); assay: Selectivity interaction (KinomeScan (DiscoverX)) EUB0000311b PRKCQ; conditions: at 1 µM
[2] = target: RAC-alpha serine/threonine-protein kinase (Homo sapiens, UniProt P31749); assay: Selectivity interaction (Kinase panel (literature)) EUB0001199aCl AKT1; conditions: at 1 µM
RAC-alpha serine/threonine-protein kinase, sequence (P31749 whole entry): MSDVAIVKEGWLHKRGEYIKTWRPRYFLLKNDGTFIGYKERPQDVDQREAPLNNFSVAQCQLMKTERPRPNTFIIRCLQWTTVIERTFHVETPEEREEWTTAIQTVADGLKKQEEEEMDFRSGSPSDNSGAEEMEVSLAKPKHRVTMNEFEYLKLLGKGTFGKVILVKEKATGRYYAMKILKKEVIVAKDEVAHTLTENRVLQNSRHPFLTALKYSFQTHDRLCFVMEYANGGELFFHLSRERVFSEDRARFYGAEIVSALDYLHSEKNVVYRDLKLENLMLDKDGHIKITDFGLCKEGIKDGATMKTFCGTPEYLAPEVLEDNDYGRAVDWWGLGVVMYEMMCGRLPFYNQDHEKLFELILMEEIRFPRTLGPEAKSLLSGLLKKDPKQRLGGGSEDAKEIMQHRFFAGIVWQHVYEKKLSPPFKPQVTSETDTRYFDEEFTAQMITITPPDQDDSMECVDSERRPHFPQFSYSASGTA

[3] = test system: Epidermal growth factor receptor (Homo sapiens), P00533 [UNDEFINED MUTATION]; assay: Selectivity interaction (KinomeScan (DiscoverX)) EUB0000607a EGFR; conditions: at 10 µM
[4] = target: Serine/threonine-protein kinase 25 (Homo sapiens) (UniProt O00506); assay: Selectivity interaction (KinomeScan (DiscoverX)) EUB0000607a STK25; conditions: at 10 µM
Serine/threonine-protein kinase 25 (Homo sapiens), sequence (O00506 whole entry, looked up): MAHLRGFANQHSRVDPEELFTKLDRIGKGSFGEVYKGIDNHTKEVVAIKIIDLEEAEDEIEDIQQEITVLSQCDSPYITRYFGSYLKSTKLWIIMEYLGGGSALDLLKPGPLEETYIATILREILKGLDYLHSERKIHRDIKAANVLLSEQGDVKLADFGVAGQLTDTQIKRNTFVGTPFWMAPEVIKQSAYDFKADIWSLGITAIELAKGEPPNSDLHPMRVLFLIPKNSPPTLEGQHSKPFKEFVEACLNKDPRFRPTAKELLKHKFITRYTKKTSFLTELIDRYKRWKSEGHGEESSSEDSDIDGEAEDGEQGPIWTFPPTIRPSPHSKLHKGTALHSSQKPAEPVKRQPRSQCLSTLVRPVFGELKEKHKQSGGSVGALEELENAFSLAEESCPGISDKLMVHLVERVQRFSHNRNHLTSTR

[5] = target: Rho-associated protein kinase 2 (Homo sapiens, UniProt O75116); assay: Selectivity interaction (Kinase panel (Invitrogen)) EUB0000639a ROCK2; conditions: at 200 nM
Rho-associated protein kinase 2, sequence (O75116 whole entry, looked up): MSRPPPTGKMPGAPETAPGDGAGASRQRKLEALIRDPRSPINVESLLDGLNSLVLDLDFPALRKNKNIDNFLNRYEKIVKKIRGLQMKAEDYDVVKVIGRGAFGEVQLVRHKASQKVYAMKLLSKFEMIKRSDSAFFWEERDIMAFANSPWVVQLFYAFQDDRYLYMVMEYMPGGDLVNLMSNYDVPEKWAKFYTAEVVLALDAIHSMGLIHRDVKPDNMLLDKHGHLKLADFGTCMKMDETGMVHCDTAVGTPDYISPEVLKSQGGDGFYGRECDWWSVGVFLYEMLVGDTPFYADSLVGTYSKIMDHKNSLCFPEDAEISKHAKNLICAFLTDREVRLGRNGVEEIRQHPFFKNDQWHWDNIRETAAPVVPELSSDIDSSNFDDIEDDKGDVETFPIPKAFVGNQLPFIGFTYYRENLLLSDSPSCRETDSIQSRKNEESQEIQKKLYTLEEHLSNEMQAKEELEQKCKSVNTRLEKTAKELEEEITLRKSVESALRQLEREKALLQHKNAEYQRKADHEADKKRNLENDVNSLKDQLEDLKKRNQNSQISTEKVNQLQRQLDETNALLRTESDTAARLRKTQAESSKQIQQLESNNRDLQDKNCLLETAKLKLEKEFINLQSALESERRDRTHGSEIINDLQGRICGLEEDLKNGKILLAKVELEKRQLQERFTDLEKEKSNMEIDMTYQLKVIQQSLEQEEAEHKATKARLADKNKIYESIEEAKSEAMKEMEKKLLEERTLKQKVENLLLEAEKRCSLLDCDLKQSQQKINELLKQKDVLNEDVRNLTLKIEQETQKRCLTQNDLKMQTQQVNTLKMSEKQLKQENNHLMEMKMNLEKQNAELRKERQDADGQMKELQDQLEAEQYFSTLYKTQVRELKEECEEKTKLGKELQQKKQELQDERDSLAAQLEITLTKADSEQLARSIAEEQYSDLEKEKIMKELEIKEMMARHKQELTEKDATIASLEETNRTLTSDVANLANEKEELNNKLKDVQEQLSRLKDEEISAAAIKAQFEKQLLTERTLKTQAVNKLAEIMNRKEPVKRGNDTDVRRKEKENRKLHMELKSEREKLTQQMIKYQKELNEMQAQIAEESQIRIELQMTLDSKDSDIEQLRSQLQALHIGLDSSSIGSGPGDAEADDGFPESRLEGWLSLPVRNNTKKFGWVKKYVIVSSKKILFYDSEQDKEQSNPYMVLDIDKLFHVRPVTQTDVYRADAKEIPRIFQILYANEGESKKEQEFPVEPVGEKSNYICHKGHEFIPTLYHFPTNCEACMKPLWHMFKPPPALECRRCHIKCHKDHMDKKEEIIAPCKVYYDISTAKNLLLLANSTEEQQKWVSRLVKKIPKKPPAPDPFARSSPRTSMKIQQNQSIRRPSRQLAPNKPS

[6] = target: Calcium/calmodulin-dependent protein kinase type 1D (Homo sapiens) (UniProt Q8IU85); assay: Selectivity interaction (Kinase panel (Invitrogen)) EUB0000639a CAMK1D; conditions: at 200 nM
[7] = target: T1, Serine/threonine-protein kinase ULK1 (Homo sapiens) (UniProt O75385); assay: Selectivity interaction (ActivX KiNativ screen (kinase selectivity in THP-1 cell lysates)) EUB0000639a ULK1; format: subcellular; conditions: lysate, at 1 µM
T1 sequence (whole entry): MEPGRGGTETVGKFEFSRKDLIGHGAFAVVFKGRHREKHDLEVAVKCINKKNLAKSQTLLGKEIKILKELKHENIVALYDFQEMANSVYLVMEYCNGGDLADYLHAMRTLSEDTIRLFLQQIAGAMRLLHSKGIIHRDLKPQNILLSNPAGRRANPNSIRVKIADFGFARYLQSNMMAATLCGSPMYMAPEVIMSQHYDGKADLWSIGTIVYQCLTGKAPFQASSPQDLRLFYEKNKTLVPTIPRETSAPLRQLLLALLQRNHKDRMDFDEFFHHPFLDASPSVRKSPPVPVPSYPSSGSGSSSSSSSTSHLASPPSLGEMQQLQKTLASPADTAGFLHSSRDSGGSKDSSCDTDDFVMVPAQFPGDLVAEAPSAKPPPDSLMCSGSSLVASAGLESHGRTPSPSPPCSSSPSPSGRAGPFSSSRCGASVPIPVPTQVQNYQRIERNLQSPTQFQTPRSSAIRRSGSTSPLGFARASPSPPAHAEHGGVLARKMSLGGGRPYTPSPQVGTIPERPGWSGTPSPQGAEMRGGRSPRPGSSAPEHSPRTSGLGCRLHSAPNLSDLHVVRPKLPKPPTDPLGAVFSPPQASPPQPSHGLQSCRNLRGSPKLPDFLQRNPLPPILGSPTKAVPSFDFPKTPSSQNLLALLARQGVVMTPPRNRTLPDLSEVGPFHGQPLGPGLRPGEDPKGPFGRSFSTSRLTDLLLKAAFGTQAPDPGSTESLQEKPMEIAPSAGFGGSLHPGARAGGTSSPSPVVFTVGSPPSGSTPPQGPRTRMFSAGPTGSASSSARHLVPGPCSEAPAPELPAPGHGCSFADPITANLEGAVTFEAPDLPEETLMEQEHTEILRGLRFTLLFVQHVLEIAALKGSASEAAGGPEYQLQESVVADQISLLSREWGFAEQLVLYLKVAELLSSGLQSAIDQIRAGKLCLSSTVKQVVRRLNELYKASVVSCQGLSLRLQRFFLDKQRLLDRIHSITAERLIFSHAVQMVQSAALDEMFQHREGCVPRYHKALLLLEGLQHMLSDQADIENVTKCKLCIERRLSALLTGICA

[8] = target: Serine/threonine-protein kinase 16 (Homo sapiens, UniProt O75716); assay: Selectivity interaction (KinomeScan (DiscoverX)) EUB0000695a STK16; conditions: at 100 nM
Serine/threonine-protein kinase 16, sequence (O75716 whole entry): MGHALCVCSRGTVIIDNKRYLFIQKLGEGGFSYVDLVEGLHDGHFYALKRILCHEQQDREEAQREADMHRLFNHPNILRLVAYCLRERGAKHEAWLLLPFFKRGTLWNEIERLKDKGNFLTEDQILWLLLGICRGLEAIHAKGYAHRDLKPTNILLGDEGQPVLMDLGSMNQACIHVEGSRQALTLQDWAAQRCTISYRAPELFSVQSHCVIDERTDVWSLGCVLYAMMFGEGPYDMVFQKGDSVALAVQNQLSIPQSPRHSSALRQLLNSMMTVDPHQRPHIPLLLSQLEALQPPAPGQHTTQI

[9] = target: Serine/threonine-protein kinase NIM1 (Homo sapiens, UniProt Q8IY84); assay: Selectivity interaction (KinomeScan (DiscoverX)) EUB0000595a NIM1K; conditions: at 10 µM
[10] = target: Ribosomal protein S6 kinase alpha-3 (Homo sapiens, UniProt P51812); assay: Selectivity interaction (KinomeScan (DiscoverX)) EUB0000595a RPS6KA3; conditions: at 10 µM
Ribosomal protein S6 kinase alpha-3, sequence (P51812 whole entry): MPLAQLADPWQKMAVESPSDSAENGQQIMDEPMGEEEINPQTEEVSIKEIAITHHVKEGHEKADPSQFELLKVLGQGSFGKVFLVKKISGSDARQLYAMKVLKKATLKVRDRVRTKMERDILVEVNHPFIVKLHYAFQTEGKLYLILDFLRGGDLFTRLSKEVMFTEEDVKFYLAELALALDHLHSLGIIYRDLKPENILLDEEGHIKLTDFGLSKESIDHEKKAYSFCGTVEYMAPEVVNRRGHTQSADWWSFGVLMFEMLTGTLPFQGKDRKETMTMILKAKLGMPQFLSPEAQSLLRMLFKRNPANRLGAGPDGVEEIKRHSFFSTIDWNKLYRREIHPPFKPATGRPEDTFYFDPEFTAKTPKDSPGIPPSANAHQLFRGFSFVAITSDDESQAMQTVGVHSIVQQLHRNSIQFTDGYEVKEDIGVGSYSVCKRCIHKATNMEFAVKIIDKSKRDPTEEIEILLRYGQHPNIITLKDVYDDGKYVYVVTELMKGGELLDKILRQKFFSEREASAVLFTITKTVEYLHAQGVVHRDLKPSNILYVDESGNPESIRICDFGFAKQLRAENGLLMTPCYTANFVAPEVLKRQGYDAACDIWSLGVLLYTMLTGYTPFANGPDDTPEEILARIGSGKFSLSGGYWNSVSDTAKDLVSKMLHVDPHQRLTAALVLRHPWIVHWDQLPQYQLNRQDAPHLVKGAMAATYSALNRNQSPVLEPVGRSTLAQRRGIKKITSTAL

[11] = target: Serine/threonine-protein kinase 10 (Homo sapiens) (UniProt O94804); assay: Selectivity interaction (KinomeScan (DiscoverX)) EUB0001049a STK10; conditions: at 1 µM
[12] = target: Protein kinase C alpha type (Homo sapiens, UniProt P17252); assay: Selectivity interaction (Millipore kinase profiler) EUB0000124b PRKCA; conditions: at 10 µM
[13] = target: Ribosomal protein S6 kinase alpha-1 (Homo sapiens, UniProt Q15418); assay: Selectivity interaction (KinomeScan (DiscoverX)) EUB0000045b RPS6KA1; conditions: at 10 µM
[14] = target: Serine/threonine-protein kinase 32B (Homo sapiens) (UniProt Q9NY57); assay: Selectivity interaction (KinomeScan (DiscoverX)) EUB0000045b STK32B
Serine/threonine-protein kinase 32B (Homo sapiens), sequence (Q9NY57 whole entry): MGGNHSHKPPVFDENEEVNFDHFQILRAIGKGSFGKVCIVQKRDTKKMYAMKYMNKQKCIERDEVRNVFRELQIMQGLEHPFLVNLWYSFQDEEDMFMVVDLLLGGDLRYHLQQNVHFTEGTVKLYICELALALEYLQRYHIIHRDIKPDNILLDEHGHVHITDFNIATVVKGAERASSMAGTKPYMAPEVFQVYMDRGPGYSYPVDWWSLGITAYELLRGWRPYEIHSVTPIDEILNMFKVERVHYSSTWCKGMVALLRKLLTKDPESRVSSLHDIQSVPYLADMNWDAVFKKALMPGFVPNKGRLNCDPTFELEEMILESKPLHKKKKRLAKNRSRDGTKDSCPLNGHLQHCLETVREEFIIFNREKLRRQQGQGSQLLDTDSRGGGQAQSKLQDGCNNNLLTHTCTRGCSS

[15] = target: Calcium/calmodulin-dependent protein kinase type 1G (Homo sapiens) (UniProt Q96NX5); assay: Selectivity interaction (KinomeScan (DiscoverX)) EUB0000229b CAMK1G; conditions: at 10 µM
[16] = target: Non-receptor tyrosine-protein kinase TYK2 (Homo sapiens, UniProt P29597); assay: Selectivity interaction (Kinase panel (Carna Biosciences)) EUB0001542aTs TYK2; conditions: at 1 µM
Non-receptor tyrosine-protein kinase TYK2, sequence (P29597 whole entry): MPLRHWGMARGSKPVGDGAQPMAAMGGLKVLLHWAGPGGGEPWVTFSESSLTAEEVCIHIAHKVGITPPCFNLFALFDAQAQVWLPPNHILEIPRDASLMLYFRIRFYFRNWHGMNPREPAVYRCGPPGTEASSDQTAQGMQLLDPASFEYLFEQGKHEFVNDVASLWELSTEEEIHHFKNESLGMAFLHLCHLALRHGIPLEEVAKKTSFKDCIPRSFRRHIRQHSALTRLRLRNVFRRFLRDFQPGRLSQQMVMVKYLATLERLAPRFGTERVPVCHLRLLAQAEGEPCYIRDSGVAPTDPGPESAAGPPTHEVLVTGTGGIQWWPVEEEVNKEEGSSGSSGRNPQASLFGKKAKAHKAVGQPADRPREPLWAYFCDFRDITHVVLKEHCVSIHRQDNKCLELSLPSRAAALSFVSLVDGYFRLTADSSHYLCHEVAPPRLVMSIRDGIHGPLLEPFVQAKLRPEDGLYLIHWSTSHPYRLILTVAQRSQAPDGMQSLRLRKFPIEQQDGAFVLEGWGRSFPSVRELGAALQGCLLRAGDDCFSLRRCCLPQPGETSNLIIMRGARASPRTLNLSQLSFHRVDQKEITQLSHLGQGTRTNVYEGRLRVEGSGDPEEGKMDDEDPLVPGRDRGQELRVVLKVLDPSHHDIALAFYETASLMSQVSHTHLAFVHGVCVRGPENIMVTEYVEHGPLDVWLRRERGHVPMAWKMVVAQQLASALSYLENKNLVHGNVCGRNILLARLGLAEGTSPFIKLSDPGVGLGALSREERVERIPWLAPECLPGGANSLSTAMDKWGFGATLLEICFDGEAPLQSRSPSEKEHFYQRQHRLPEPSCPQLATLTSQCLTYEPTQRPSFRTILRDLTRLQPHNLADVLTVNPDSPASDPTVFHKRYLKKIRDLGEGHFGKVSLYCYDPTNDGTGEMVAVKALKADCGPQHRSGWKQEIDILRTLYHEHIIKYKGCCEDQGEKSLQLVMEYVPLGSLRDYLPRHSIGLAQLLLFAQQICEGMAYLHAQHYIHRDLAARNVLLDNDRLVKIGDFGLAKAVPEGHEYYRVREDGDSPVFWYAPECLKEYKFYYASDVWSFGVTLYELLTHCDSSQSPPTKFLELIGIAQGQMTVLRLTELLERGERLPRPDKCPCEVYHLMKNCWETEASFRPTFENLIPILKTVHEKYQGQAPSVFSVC

[17] = target: Homeodomain-interacting protein kinase 2 (Homo sapiens, UniProt Q9H2X6); conditions: at 10 µM

% of control [1]: 15%
SMILES: CCc1ccccc1C(=O)Nc1n[nH]c2c(C)c(F)c(C3C(C#N)=C(C)N(C)C(C)=C3C#N)cc12 [BAY-3827]

% of inhibition [2]: 1%
SMILES: CN1Cc2nccc(-c3cn(C)nc3-c3ccc(F)cc3)c2C1=O

SMILES: CNC(=O)Nc1ccc(-c2nc(N3CC4CCC(C3)O4)c3cnn(C4CCC5(CC4)OCCO5)c3n2)cc1
% of control [3]: 62%
% of control [4]: 91%

% of inhibition [5]: 18.6%
% of inhibition [6]: 2.36%
% of inhibition [7]: -53.5%
SMILES: CC[C@@H]1[C@H](F)C(=O)N[C@@H]1COc1nccc2cc(C(N)=O)c(OC)cc12 [ZIMLOVISERTIB]

SMILES: Cc1cc(F)c(C(=O)Nc2cccc(-c3nncn3C(C)C)n2)cc1-n1cnc(C2CC2)c1
% of control [8]: 83%

SMILES: COCC(=O)NC/C=C/c1ccc2ncnc(Nc3ccc(Oc4ccc(C)nc4)c(C)c3)c2c1 [CP-724714]
% of control [9]: 87%
% of control [10]: 92%

SMILES: COc1cc(Nc2nc(C)cc(-c3cnn4nc(OC)ccc34)n2)cc(C(F)(F)F)c1
% of control [11]: 86%

% of control [12]: 101%
SMILES: CC(=O)Nc1cccc(-n2c(=O)n(C3CC3)c(=O)c3c(Nc4ccc(I)cc4F)n(C)c(=O)c(C)c32)c1

SMILES: C=CC(=O)Nc1cc(-n2c(=O)ccc3cnc4ccc(-c5ccc(NS(C)(=O)=O)cc5)cc4c32)ccc1C
% of control [13]: 78%
% of control ([14]; at 1 µM): 100%
% of control ([14]; at 10 µM): 100%

SMILES: COc1cc(N(C)c2ccnc3ccc(C(F)(F)F)cc23)cc(OC)c1OC
% binding [15]: 95%

% of inhibition [16]: 101%
SMILES: Cn1cc(Nc2nccc(N3CC4CCC(C3)N4C(=O)[C@@H]3CC3(F)F)n2)cn1

SMILES: Cc1cc([C@@H](C)Nc2ccccc2C(=O)O)c2nc(N3CCOCC3)cc(=O)n2c1 [AZD-6482]
% of control [17]: 79%
